The values that follow are results of earlier work, collected in patent US11524044B2, “Strengthening and tumor eliminating traditional Chinese medicine composition, its preparation method and application” (The First Afiliated Hospital Of Guangzhou University Of …, priority 2020, dated 2022).

The subject of data set [1] is ADP induced platelet aggregation.
In data set [2] the test system is human colon cancer, liver cancer, gastric cancer, lung cancer and breast cancer related cells.

Regarding `N#C[C@H](O[C@@H]1O[C@H](CO[C@@H]2O[C@H](CO)[C@@H](O)[C@H](O)[C@H]2O)[C@@H](O)[C@H](O)[C@H]1O)c1ccccc1` [amygdalin], the “inhibition of ADP induced platelet aggregation” value in data set [1] is reported as “inhibit ADP induced platelet aggregation in varying degrees”.
Regarding `COc1cc(O)c(-c2c(O)cc(OC)c3c2ccc2cc(O)ccc23)c2c1-c1ccc(O)cc1CC2` [Cirrhopetalanthrin], the cytotoxicity entry in data set [2] was “moderate cytotoxicity”.
